These are literature values, as cited in patent US20230337663A1, “AGRICULTURAL COMPOSITION” (REVOLUTION BIOTECH LLC, priority 2020, published 2023).

The conditions of this series: Ecolabel Lubricant Substance Classification List.

Farnesene, mixture of isomers: the toxicity label entry is listed as “non-toxic”.
